“And” between values parts separate entries of the source, which are not always exact repeats. Identical values can stand only once.
Legend:
Phakopsora pachyrhizi = test: Green house use example 13: curative control of soybean rust on soybeans (PHAKPA F129L K4); format: in vivo; conditions: Trial 3, single compound
Monilinia sp. (MONISP) = test: microbe, parasite or virus in culture; format: cell-based
[1] = test system: Alternaria solani (ALTESO); test: microbe, parasite or virus in culture; format: cell-based; conditions: for inhibition of growth at 0.063 ppm / inhibition of growth at 0.25 ppm / inhibition of growth at 1 ppm / inhibition of growth at 0.016 ppm: Alternaria solani, 168 h, read-out: Observed efficacy
[2] = test system: Pyricularia oryzae (PYRIOR); test: microbe, parasite or virus in culture; format: cell-based; conditions: for Observed efficacy: single active
[3] = test system: Sclerotinia sclerotiorum (SCLESC); test: microbe, parasite or virus in culture; format: cell-based
[4] = test system: Pyrenophora teres (PYRNTE), Qol resistant (F129L); test: microbe, parasite or virus in culture; format: cell-based; conditions: for inhibition of growth at 0.016 ppm / inhibition of growth at 0.063 ppm / inhibition of growth at 0.25 ppm / inhibition of growth at 1 ppm: Pyrenophora teres, 168 h, read-out: Observed efficacy
[5] = test system: Septoria tritici (SEPTTR); test: microbe, parasite or virus in culture; format: cell-based
[6] = Monilinia, 168 h, read-out: Observed efficacy
[7] = Sclerotinia sclerotiorum, 168 h, read-out: Observed efficacy
[8] = Pyricularia oryzae, 168 h, read-out: Observed efficacy
[9] = Zymoseptoria tritici, 168 h, read-out: Observed efficacy

Row | Compound | Observed efficacy ([2]; 0.063 ppm) | inhibition of growth at 0.063 ppm [3, 7] | inhibition of growth at 0.063 ppm [1] | inhibition of growth at 0.016 ppm [4] | inhibition of growth at 0.063 ppm [4] | inhibition of growth at 0.25 ppm [4] | inhibition of growth at 1 ppm [4] | inhibition of growth at 0.016 ppm [2, 8] | inhibition of growth at 0.063 ppm [2, 8] | inhibition of growth at 1 ppm [2, 8] | inhibition of growth at 0.25 ppm [1] | further results
1 | metarylpicoxamid |  |  |  |  |  |  |  |  |  |  |  | Observed efficacy (Phakopsora pachyrhizi; 1 ppm): 20; Observed efficacy (Phakopsora pachyrhizi; 2 ppm): 66
2 | Cc1cccc(-n2nnn(C)c2=O)c1COc1ccn(-c2ccc(Cl)cc2)n1 [metyltetraprole, reference compound] | 70% |  |  |  |  |  |  |  |  |  |  | Observed efficacy (Monilinia sp. (MONISP)): 17; Observed efficacy [1]: 22; Observed efficacy ([2]; 0.016 ppm): 30%
3 | CO/C=C(/C(=O)OC)c1cccc(Br)c1CO/N=C(\COC)c1ccccc1 [I.2, Methyl (E)-2-[3-bromo-2-[[(Z)-(2-methoxy-1-phenyl-ethylidene)amino]oxymethyl]-phenyl]-3-methoxy-prop-2-enoate] |  | 7% | 36% | 7% | 34% | 44% | 60% | 0% | 0% | 31% |  | inhibition of growth at 0.001 ppm (Monilinia sp. (MONISP); [6]): 0%; inhibition of growth at 0.016 ppm (Monilinia sp. (MONISP); [6]): 0%; inhibition of growth at 0.063 ppm (Monilinia sp. (MONISP); [6]): 18%; inhibition of growth at 1 ppm [3, 7]: 41%
4 | OC(Cc1ccccc1Cl)(Cn1nc[nH]c1=S)C1(Cl)CC1 (centres unmarked) [prothioconazole, reference compound] |  |  |  |  |  |  |  |  |  | 12% | 10% | inhibition of growth at 0.004 ppm (Monilinia sp. (MONISP); [6]): 19%; inhibition of growth at 1 ppm [1]: 14%; inhibition of growth at 0.063 ppm [5, 9]: 5%; inhibition of growth at 0.25 ppm [5, 9]: 67%; inhibition of growth at 0.25 ppm [2, 8]: 1%
5 | mancozeb [reference compound] | 54% |  |  |  |  |  |  |  |  |  |  | Observed efficacy [3]: 59; Observed efficacy [4]: 59; Observed efficacy [5]: 18 and 19 and 13; Observed efficacy ([2]; 0.004 ppm): 11%; Observed efficacy ([2]; 0.016 ppm): 34%
6 | CO/C=C(/C(=O)OC)c1cccc(F)c1CO/N=C(\COC)c1c(F)cc(F)cc1F [I.8, Methyl (E)-2-[3-fluoro-2-[[(Z)-[2-methoxy-1-(2,4,6-trifluorophenyl)ethylidene]amino]-oxymethyl]phenyl]-3-methoxy-prop-2-enoate] |  | 0% | 0% | 1% | 14% | 20% | 44% | 0% | 0% | 18% | 4% | inhibition of growth at 0.25 ppm (Monilinia sp. (MONISP); [6]): 42%; inhibition of growth at 0.016 ppm [1]: 2%; inhibition of growth at 1 ppm [1]: 59%; inhibition of growth at 0.25 ppm [2, 8]: 2%
7 | CO/C=C(/C(=O)OC)c1cccc(Cl)c1CO/N=C(\COC)c1ccc(F)cc1 [I.5, Methyl-(E)-2-[3-chloro-2-[[(Z)-[1-(4-fluorophenyl)-2-methoxy-ethylidene]amino]-oxy¬imethyl]phenyl]-3-methoxy-prop-2-enoate] | 28% |  |  |  |  |  |  |  |  |  |  | Observed efficacy (Monilinia sp. (MONISP)): 56; Observed efficacy [3]: 0
8 | CO/C=C(/C(=O)OC)c1cccc(Cl)c1CO/N=C(\COC)c1ccc(F)cc1F [I.6, Methyl (E)-2-[3-chloro-2-[[(Z)-[1-(2,4-difluorophenyl)-2-methoxy-ethylidene]amino]-oxymethyl]phenyl]-3-methoxy-prop-2-enoate] |  | 5% | 18% | 2% | 27% | 42% | 54% | 0% | 0% | 24% | 34% | inhibition of growth at 0.016 ppm (Monilinia sp. (MONISP); [6]): 10%; inhibition of growth at 0.063 ppm (Monilinia sp. (MONISP); [6]): 7%; inhibition of growth at 0.016 ppm [3, 7]: 4%; inhibition of growth at 1 ppm [3, 7]: 47%; inhibition of growth at 0.016 ppm [1]: 10%; inhibition of growth at 0.004 ppm [2, 8]: 0%

From patent publication EP4640052A1 (BASF SE, priority 2024, dated 2025)
